{"source": "patent US20090029366A1", "about": "(priority 2007, published 2009)", "biological_target": "T1, human HCN4 channel (Homo sapiens, UniProt Q9Y3Q4)", "T1 construct": "expressed in transfected cells; host or cells: CHO-K1", "T1 sequence (Q9Y3Q4 1-1203)": "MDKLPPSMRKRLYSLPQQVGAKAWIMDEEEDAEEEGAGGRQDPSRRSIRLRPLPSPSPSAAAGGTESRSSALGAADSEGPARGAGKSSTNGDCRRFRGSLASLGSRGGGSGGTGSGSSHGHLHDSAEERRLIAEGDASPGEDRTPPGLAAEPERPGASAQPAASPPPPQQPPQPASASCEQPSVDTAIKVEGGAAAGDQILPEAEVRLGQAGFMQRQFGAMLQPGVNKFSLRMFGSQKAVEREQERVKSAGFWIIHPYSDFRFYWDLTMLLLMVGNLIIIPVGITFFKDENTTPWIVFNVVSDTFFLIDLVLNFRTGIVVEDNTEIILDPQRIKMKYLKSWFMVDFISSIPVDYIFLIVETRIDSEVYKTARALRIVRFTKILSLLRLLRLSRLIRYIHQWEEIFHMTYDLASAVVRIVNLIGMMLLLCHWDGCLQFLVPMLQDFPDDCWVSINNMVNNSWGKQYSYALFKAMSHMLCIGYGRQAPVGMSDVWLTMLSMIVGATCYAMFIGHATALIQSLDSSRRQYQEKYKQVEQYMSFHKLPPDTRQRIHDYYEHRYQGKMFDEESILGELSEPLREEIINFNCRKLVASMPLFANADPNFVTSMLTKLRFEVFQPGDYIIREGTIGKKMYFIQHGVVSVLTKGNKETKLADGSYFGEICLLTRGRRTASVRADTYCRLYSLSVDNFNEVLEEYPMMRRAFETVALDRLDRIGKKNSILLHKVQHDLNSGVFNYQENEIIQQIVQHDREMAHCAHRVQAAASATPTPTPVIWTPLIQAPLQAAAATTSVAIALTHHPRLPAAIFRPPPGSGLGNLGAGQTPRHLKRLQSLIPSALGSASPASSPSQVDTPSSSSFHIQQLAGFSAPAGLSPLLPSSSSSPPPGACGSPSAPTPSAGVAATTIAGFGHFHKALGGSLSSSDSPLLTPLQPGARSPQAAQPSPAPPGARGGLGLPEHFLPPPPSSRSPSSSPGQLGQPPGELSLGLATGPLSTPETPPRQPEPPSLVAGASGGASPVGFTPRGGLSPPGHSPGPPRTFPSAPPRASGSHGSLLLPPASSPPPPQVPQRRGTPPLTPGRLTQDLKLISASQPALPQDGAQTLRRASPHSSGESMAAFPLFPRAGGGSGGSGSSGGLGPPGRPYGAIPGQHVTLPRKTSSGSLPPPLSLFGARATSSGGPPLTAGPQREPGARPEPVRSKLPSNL", "assay": "MPSD FLIPR 384 hyperpolarization assay, HCN4 (CHO-K1 cells)", "type": "cell-based", "settings": "50 μM ZD7288", "description": "CHO-K1 cells stably expressing a human HCN4 channel were plated as described in Example 3 above. Using a FLIPR®^96 assay, control cells were incubated in 30 μl/well HBSS (Gibco catalog 14025-092 containing NaCl, 137.93; KCl, 5.33; KH2PO4, 0.44; NaHCO3, 4.17; Na2HPO4, 0.34; CaCl2, 1.26; MgCl2, 0.49; MgSO4, 0.41; D-Glucose 5.56). The HBSS was supplemented with MPSD (1 vial/0.5 L). The saline for test cells additionally included 30 μM of the channel inhibitor ZD7288 dissolved in <1.0% DMSO. After 15-30 minutes incubation, background fluorescence was recorded on FLIPR and the membrane hyperpolarization induced by the addition of 200 μl sodium/potassium diluent solution (140 Choline-Cl, 1.0 mM CaCl2, 1.0 mM CaCl2, 10 mM HEPES, 5.5 mM D-glucose, pH 7.3 with TRIS-OH), supplemented with MPSD (1 vial/0.5 L) was recorded on FLIPR.\nThe FLIPR®^384 well plate was prepared similarly to the FLIPR®^96 well plate except that the amounts of HBSS (optionally, HBSS was supplemented with about 25 to 50 mM of KCl to further enhance assay window) and the sodium/potassium diluent solution were adjusted to keep the dilution ratio of these solutions between about 1:10-1:30, respectively. Additionally, 50 μM ZD7288 was added to the saline containing test cells. […] In addition, less than about 0.02% false positives or false negatives were observed (covariance 11.03 and 12.05, data not shown)."}
{"molecule": "CCN(c1ccccc1)c1cc(=NC)n(C)c(C)n1.Cl", "note": "[ZD7288]", "values": [{"measurement": "blockade of hyperpolarization of HCN4 channels", "value": "effectively blocked hyperpolarization"}]}
